The source of these data is patent publication US12410160B2 (Gilead Sciences, Inc., priority 2021, dated 2025).

As a reminder, the IC50 is the point on the concentration scale where inhibition reaches its midpoint. High values mean weaker potency, low ones greater potency. For orientation: EC50 means the concentration giving half of the maximal effect. What is called pKa is the pH at which an ionisable group is half protonated.

In one data set the target is human KHK-A (Homo sapiens (Human), UniProt P50053). The data set can be described thus: KHK Biochemical Assay (IC50), ADP-Glo, KHK-A. As to conditions: average of at least two separate assays. The method in brief:
(§1)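 His-tagged enzyme expressed in BL21 (DE3), Ni-NTA purified. Compounds, serially diluted 1:3 in DMSO, pre-incubated 30 min with enzyme in 50 mM Hepes pH 7.4, 140 mM KCl, 5 mM MgCl2, 0.01% Triton-X, then ATP and fructose added; 4 h at room temperature. ADP formation read by ADP-Glo luminescence.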

For a further data set, the target named is human KHK-C (Homo sapiens (Human), UniProt P50053). Put plainly: KHK Biochemical Assay (IC50), ADP-Glo, KHK-C. To be noted: average of at least two separate assays. The gist of the method: as §1
Chain of human KHK-C (P50053 whole entry): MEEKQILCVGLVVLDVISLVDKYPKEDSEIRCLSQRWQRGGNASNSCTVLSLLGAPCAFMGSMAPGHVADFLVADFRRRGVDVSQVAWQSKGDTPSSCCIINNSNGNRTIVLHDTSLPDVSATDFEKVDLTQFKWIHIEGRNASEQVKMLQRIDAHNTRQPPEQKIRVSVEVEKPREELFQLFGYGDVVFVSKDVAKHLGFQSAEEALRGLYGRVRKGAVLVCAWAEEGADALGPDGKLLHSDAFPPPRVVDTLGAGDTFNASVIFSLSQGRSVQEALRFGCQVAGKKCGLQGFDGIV
(In general: In ADP-Glo the light output rises with the ADP produced.)

Data set [1] has as its target KHK-C expressed in NRK-52E cells (Homo sapiens (Human), UniProt P50053). The data set can be described thus: KHK-C Cell-based Assay (EC50), NRK CTG, fructose-mediated ATP-depletion.
Data set [2] in a line: pKa analysis by capillary electrophoresis (pKa PRO Analyzer, co-solvent method). Type of data set: physicochemical. As to conditions: co-solvent method (60% to 30% methanol buffers); for pKa: methanol/aqueous co-solvent buffers. As to the method:
The 10 mM DMSO stock solutions of test articles (TAs) were diluted 100-fold with either 2 mM HCl or 2 mM NaOH and methanol. The final concentration of methanol was 60%, TA concentration was 100 μM, and DMSO concentration was 1%. The TAs were transferred into 24 consecutive wells of a 96-well plate for analysis using the co-solvent method. […] All data was obtained using a pKa. PRO Analyzer (AATI, Ankey, IA) by performing four consecutive CE runs from 60% to 30% co-solvent buffers. Norfloxacin was used as a daily performance-indicating standard. The pKa values were predicted by using pKa. Estimator® software (AATI, Ankey, IA) by relating molecular weight of the TA to its mobility.

A further data set has as its system HepG2 cells. The data set can be described thus: F1P Cell-Based Assay (EC50), 13C6-fructose-1-phosphate in HepG2 cells (cell culture medium or 50% human plasma). As to conditions: Homo sapiens.
The next data set has as its target human OATP1B1 (Homo sapiens (Human), UniProt Q9Y6L6). Put plainly: In Vitro Inhibition Assessment with Human OATP1B1 Transporter. Type of data set: in vitro ADME. To be noted: HEK293-OATP1B1 cells, probe substrate pravastatin. The method in brief: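 Pravastatin uptake was measured by LC-MS/MS after a 5 min exposure with inhibitor, following a 15 min inhibitor preincubation, in transfected versus mock HEK293 cells. Transport activity was derived as (transfected − mock) with compound over the same difference with solvent. IC50 is the concentration halving maximal activity; final DMSO was 0.4%.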

Setting [3] is: pH range 1.7-11.2, read-out: 1st pKa.
Where [4] appears, read: pH range 1.7-11.2, read-out: 2nd pKa.
The mark [5] stands for this setting: HepG2, HepG2 cells, 50% human plasma, read-out: F1P 50% HP EC50.
[6] abbreviates: HepG2, read-out: F1P 10% FBS EC50, HepG2 cells, cell culture medium (10% FBS).

Each structure is given as a SMILES string. Like-named read-outs stand apart in the source and are kept apart here. A value given as a limit tells only on which side of the number the result lay.

Chain of human KHK-A (P50053 other isoform, or with tags, fused parts or gaps): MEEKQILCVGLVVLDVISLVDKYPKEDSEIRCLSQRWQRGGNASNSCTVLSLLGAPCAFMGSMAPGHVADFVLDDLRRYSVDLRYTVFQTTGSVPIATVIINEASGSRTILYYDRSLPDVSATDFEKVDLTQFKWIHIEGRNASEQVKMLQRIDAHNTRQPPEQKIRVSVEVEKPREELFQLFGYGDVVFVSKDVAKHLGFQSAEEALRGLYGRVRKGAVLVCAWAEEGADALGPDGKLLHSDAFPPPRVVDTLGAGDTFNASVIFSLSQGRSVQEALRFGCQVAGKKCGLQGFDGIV
Chain of KHK-C expressed in NRK-52E cells (P50053 whole entry): as the sequence (P50053 whole entry) above
Chain of human OATP1B1 (Q9Y6L6 whole entry): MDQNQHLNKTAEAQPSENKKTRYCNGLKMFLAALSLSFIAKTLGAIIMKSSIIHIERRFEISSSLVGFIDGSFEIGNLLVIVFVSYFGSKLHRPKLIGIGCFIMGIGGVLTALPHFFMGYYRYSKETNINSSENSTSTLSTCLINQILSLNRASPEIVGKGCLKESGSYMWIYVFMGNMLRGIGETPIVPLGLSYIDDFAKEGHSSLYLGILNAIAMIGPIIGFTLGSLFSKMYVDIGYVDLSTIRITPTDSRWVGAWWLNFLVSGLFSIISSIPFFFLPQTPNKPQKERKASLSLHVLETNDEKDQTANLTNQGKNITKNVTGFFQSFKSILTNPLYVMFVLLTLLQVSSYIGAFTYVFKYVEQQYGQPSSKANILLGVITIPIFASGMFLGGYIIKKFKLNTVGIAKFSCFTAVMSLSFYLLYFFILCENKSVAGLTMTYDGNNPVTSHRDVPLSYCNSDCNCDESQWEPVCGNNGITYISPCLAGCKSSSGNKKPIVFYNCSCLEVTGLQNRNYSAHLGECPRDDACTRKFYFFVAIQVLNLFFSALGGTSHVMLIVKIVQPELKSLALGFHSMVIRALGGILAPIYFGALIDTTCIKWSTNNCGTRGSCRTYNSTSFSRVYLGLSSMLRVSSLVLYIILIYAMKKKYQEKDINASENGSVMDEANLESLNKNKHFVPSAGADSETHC

As to `C[C@H]1CCN1c1nc2c(c(-c3ccc4c(N)nc(N)nc4c3)n1)CCC2` [Example 147, (S)-7-(2-(2-methylazetidin-1-yl)-6,7-dihydro-5H-cyclopenta[d]pyrimidin-4-yl)quinazoline-2,4-diamine], the concentration for half-maximal inhibition (IC50) at human KHK-A (ADP-Glo) came to 12.3 nM; against human KHK-C (ADP-Glo), 18.7 nM. For the same molecule, the concentration giving a half-maximal response (EC50) in data set [1] stood at 35.3 nM. Besides, the pKa amounted to 3.59 in data set [2] (setting [3]) and 6.43 in data set [2] (setting [4]).
Taken in the same sequence, the figures for `C[C@H]1CCN1c1nc2c(c(-c3ccc4cnc(O)cc4c3)n1)CCC2` [Example 380, 6-[2-[(2S)-2-methylazetidin-1-yl]-6,7-dihydro-5H-cyclopenta[d]pyrimidin-4-yl]isoquinolin-3-ol] were 13 nM, 7.9 nM, 75.7 nM, 4.21 and 9.04.
With `C[C@H]1CCN1c1nc2c(c(-c3cc[nH]n3)n1)CCC2` [Example 18, (S)-2-(2-methylazetidin-1-yl)-4-(1H-pyrazol-3-yl)-6,7-dihydro-5H-cyclopenta[d]pyrimidine], the concentration for half-maximal inhibition (IC50) worked out at 55.1 nM on human KHK-A (ADP-Glo) and 73.1 nM against human KHK-C (ADP-Glo). For the same molecule, the EC50 in data set [1] stood at 144 nM. The pKa in data set [2] (setting [3]) turned out to be 4.52.
Turning to `C[C@H]1CCN1c1nc2c(c(-c3cn4ccnc4s3)n1)CCC2` [Example 121, (S)-2-(2-(2-methylazetidin-1-yl)-6,7-dihydro-5H-cyclopenta[d]pyrimidin-4-yl)imidazo[2,1-b]thiazole], the IC50 at human KHK-A (ADP-Glo) turned out to be 29.3 nM; against human KHK-C (ADP-Glo), 24.1 nM. Besides, a half-maximal response in data set [1] (EC50) required 87.3 nM. The pKa was determined as 3.68 in data set [2] (setting [3]) and 5.35 in data set [2] (setting [4]).
Taken in the same sequence, the figures for `C[C@H]1CCN1c1nc2c(c(-c3ccc4c(O)nc(O)cc4c3)n1)CCC2` [Example 381, 6-[2-[(2S)-2-methylazetidin-1-yl]-6,7-dihydro-5H-cyclopenta[d]pyrimidin-4-yl]isoquinoline-1,3-diol] were 18.9 nM, 89.7 nM, above 5000 nM, 4.12 and 8.07.
As for `C[C@H]1[C@H](F)CN1c1nc(-c2ccc([C@]3(N)C[S@@](=N)(=O)C3)cc2)c2c(n1)C(F)(F)CC2` [Example 797, (1R,3s)-3-amino-3-(4-(7,7-difluoro-2-((2S,3R)-3-fluoro-2-methylazetidin-1-yl)-6,7-dihydro-5H-cyclopenta[d]pyrimidin-4-yl)phenyl)-1-imino-1λ^6-thietane 1-oxide], the IC50 worked out at 7.3 nM against human KHK-A (ADP-Glo) and 0.2 nM on human KHK-C (ADP-Glo). The EC50 in data set [1] (read-out: NRK CTG EC50, NRK-52E cells, Cell-Titer Glo, 25 mM fructose, 48 hours) was 16.4 nM. For the same molecule, in data set [2] (pH range 1.7-11.2), the “1st pKa” value amounted to 4.7.
On to `C[C@H]1CCN1c1nc2c(c(-c3ccc4c(c3)CCNC4)n1)CCC2` [Example 379, 6-[2-[(2S)-2-methylazetidin-1-yl]-6,7-dihydro-5H-cyclopenta[d]pyrimidin-4-yl]-1,2,3,4-tetrahydroisoquinoline], for which the IC50 stood at 4.1 nM against human KHK-A (ADP-Glo) and 4.6 nM against human KHK-C (ADP-Glo). Also, the figures for the EC50 (in data set [1]; in the data set on HepG2 cells (setting [5]); in the data set with HepG2 cells (setting [6])) were 2.6 nM, 3.1 nM and 1.3 nM, respectively. In addition, the pKa in data set [2] (setting [3]) was 4.31; in data set [2] (setting [4]) it was 9.19.
`C[C@H]1CCN1c1nc2c(c(-c3ccc(C4(N)COC4)cc3)n1)CCC2` [Example 131, (S)-3-(4-(2-(2-methylazetidin-1-yl)-6,7-dihydro-5H-cyclopenta[d]pyrimidin-4-yl)phenyl)oxetan-3-amine]: the half-inhibitory concentration (IC50) is 6 nM at human KHK-A (ADP-Glo) and 2.6 nM at human KHK-C (ADP-Glo). It took 10.9 nM to reach a half-maximal effect in data set [1] (EC50). The pKa turned out to be 4.25 in data set [2] (setting [3]) and 6.48 in data set [2] (setting [4]).
With `C[C@H]1CCN1c1nc2c(c(-c3ccc(C4(N)CC4)cc3)n1)CCC2` [Example 295, (S)-1-(4-(2-(2-methylazetidin-1-yl)-6,7-dihydro-5H-cyclopenta[d]pyrimidin-4-yl)phenyl)cyclopropan-1-amine], the IC50 was found to be 2.6 nM against human KHK-A (ADP-Glo) and 1.4 nM against human KHK-C (ADP-Glo). Moreover, in data set [1], the EC50 was 6.2 nM. Further, the pKa turned out to be 4.25 in data set [2] (setting [3]) and 8.01 in data set [2] (setting [4]).
Taken in the same sequence, the figures for `C[C@H]1CCN1c1nc2c(c(-c3ccncc3)n1)CCC2` [Example 22, (S)-2-(2-methylazetidin-1-yl)-4-(pyridin-4-yl)-6,7-dihydro-5H-cyclopenta[d]pyrimidine] were 147 nM, 99.1 nM, 288 nM, 2.86 and 4.74.
At human OATP1B1, `NC1(c2ccc(-c3nc(N4CC[C@@H]4C(F)(F)F)nc4c3CCC4(F)F)cc2)CS(=O)(=O)C1` [Example 802, (R)-3-amino-3-(4-(7,7-difluoro-2-(2-(trifluoromethyl)azetidin-1-yl)-6,7-dihydro-5H-cyclopenta[d]pyrimidin-4-yl)phenyl)thietane 1,1-dioxide] returned an IC50 of 10600 nM. In data set [2] (setting [3]), the pKa was determined as 4.6.
Consider `C[C@H]1CCN1c1nc2c(c(-c3ccccc3)n1)CCC2` [Example 331, 2-[(2S)-2-methylazetidin-1-yl]-4-phenyl-6,7-dihydro-5H-cyclopenta[d]pyrimidine], for which the figures for the IC50 against human KHK-A (ADP-Glo) and against human KHK-C (ADP-Glo) were 255 nM and 242 nM, respectively. The EC50 is 384 nM in data set [1], 4610 nM in the data set with HepG2 cells (setting [5]) and 253 nM in the data set with HepG2 cells (setting [6]). Moreover, the pKa in data set [2] (setting [3]) amounted to 4.14.
On to `C[C@H]1CCN1c1nc2c(c(-c3cccc(CN4CCC4)c3)n1)CCC2` [Example 347, 4-[3-(azetidin-1-ylmethyl)phenyl]-2-[(2S)-2-methylazetidin-1-yl]-6,7-dihydro-5H-cyclopenta[d]pyrimidine], for which the IC50 was 22.7 nM at human KHK-A (ADP-Glo) and 23.8 nM against human KHK-C (ADP-Glo). The molecule also yielded a half-maximal effective concentration (EC50) in data set [1] of 17.1 nM. The pKa amounted to 3.69 in data set [2] (setting [3]) and 9.16 in data set [2] (setting [4]).
On to `C[C@H]1CCN1c1nc2c(c(-c3ccc(CNS(C)(=O)=O)s3)n1)CCC2` [Example 460, N-[[5-[2-[(2S)-2-methylazetidin-1-yl]-6,7-dihydro-5H-cyclopenta[d]pyrimidin-4-yl]-2-thienyl]methyl]methanesulfonamide], for which the IC50 at human KHK-A was 10.9 nM; against human KHK-C, 5.2 nM. Further, the EC50 in data set [1] was 23.6 nM. Moreover, the pKa in data set [2] (setting [3]) was 4.66; in data set [2] (setting [4]) it was 11.2.
For `C[C@H]1CCN1c1nc2c(c(-c3ccc4c(c3)OCC4N)n1)CCC2` (stereo partly drawn) [Example 754, 6-[2-[(2S)-2-methylazetidin-1-yl]-6,7-dihydro-5H-cyclopenta[d]pyrimidin-4-yl]-2,3-dihydrobenzofuran-3-amine], the IC50 against human KHK-C worked out at 1.9 nM. Further, the 50% effective concentration (EC50) came to 14.6 nM in data set [1] and 11.7 nM in the data set on HepG2 cells (setting [5]). The pKa in data set [2] (setting [3]) came to 4.2.
For the molecule `C[C@H]1CCN1c1nc2c(c(-c3ccns3)n1)CCC2` [Example 13, (S)-5-(2-(2-methylazetidin-1-yl)-6,7-dihydro-5H-cyclopenta[d]pyrimidin-4-yl)isothiazole], the IC50 on human KHK-A (ADP-Glo) is 34 nM; against human KHK-C (ADP-Glo) it was 40.8 nM. The molecule further registered a concentration for a half-maximal effect (EC50) in data set [1] of 89.4 nM. Moreover, the pKa in data set [2] (setting [3]) worked out at 3.77.
As to `C[C@H]1[C@H](O)CN1c1nc(-c2ccc([C@]3(N)CCS(=O)(=O)C3)cc2)c2c(n1)C(F)(F)CC2` (single isomer, unassigned) [Example 795], the half-maximal inhibitory concentration (IC50) is 24.1 nM against human KHK-A (ADP-Glo) and 4.6 nM against human KHK-C (ADP-Glo). Moreover, the EC50 in data set [1] came to 54.5 nM; in the data set with HepG2 cells (setting [5]), 88.8 nM; in the data set with HepG2 cells (setting [6]), 52.7 nM. Moreover, in data set [2] (setting [3]), the pKa turned out to be 4.9.
With `C[C@H]1CCN1c1nc2c(c(-c3cnn(C)c3)n1)CCC2` [Example 23, (S)-4-(1-methyl-1H-pyrazol-4-yl)-2-(2-methylazetidin-1-yl)-6,7-dihydro-5H-cyclopenta[d]pyrimidine], the values for the IC50 on human KHK-A (ADP-Glo) and against human KHK-C (ADP-Glo) were 68.9 nM and 66.5 nM, respectively. Moreover, the concentration giving a half-maximal response (EC50) in data set [1] came out at 197 nM. In addition, the pKa in data set [2] (setting [3]) was found to be 4.97.
As for `C[C@H]1CCN1c1nc2c(c(-c3cccc(CN)c3)n1)CCC2` [Example 329, [3-[2-[(2S)-2-methylazetidin-1-yl]-6,7-dihydro-5H-cyclopenta[d]pyrimidin-4-yl]phenyl]methanamine], the figures for the IC50 against human KHK-A (ADP-Glo) and against human KHK-C (ADP-Glo) were 24.5 nM and 18.5 nM, respectively. Moreover, in data set [1], the midpoint of the response, the EC50, lay at 339 nM. The pKa in data set [2] (setting [3]) was found to be 4.12; in data set [2] (setting [4]) it was 9.27.
